Tests used:
[1] = test system: HCT 15; test: In vitro cytotoxicity (SRB), HCT 15; assay type: cell-based, human; details: 48 h
Procedure: (§1) The human cancer cell lines procured from National Cancer Institute, Frederick, U.S.A or National Center for Cell Science; Pune, India. were used in present study. Cells were grown in tissue culture flasks in complete growth medium (RPMI-1640 medium with 2 mM glutamine, 100 μg/ml streptomycin, pH 7.4, sterilized by filtration and supplemented with 10% fetal calf serum and 100 units/ml penicillin before use) at 37° C. in an atmosphere of 5% CO2 and 90% relative humidity in a carbon dioxide incubator. The cells at subconfluent stage were harvested from the flask by treatment with trypsin (0.5% in PBS containing 0.02% EDTA) for determination of cytotoxicity. Cells with viability of more than 98% as determined by trypan blue exclusion were used for assay. The cell suspension of the required cell density was prepared in complete growth medium with gentamycin (50 μg/ml) for determination of cytotoxicity.
(§2) A stock solutions of (20 mg/ml) of test material were prepared in distilled water. The stock solutions were serially diluted with complete growth medium containing 50 μg/ml of gentamycin to obtain working test solutions of required concentrations. In vitro cytotoxicity against human cancer cell lines was determined (Monks, A., Scudiero, D., Skehan, P., Shoemaker R., Paull, K., Vistica, D., Hose, C., Langley, j., Cronise, P., Vaigro-Wolff, A., Gray-Goodrich, M., Campbell, H., Mayo, J and Boyd, M. (1991). Feasibility of a high-flux anticancer drug screen using a diverse panel of cultured human tumor cell lines. J. Natl. Cancer Inst. 83, 757-766.) using 96-well tissue culture plates. The 100 μl of cell suspension was added to each well of the 96-well tissue culture plate. The cells were incubated for 24 hours. Test materials in complete growth medium (100 μl) were added after 24 hours incubation to the wells containing cell suspension. The plates were further incubated for 48 hours (at 37° C. in an atmosphere of […] 90% relative humidity in a carbon dioxide incubator) after addition of test material and then the cell growth was stopped by gently layering trichloroacetic acid (TCA, 50 μl, 50%) on top of the medium in all the wells. The plates were incubated at 4° C. for one hour to fix the cells attached to the bottom of the wells. The liquid of all the wells was gently pipetted out and discarded. The plates were washed five times with distilled water to remove TCA, growth medium low molecular weight metabolites, serum proteins etc and air-dried. Cell growth was measured by staining with sulforhodamine B dye (P. Skehan, R. Storeng, D. Scudiero, A. Monks, J. McMohan, D. Vistica, J. T. Warren, H. Bokesch, S. Kenney, M. R. Boyd (1990) New colorimetric cytotoxic Assay for Anticancer—Drug Screening Journal of the National Cancer Institute 82, 1107-1112). The adsorbed dye was dissolved in Tris-Buffer (100 μl, 0.01M, pH 10.4) and plates were gently stirred for 5 minutes on a mechanical stirrer. The optical density (OD) was recorded on ELISA reader at 540 nm.
(§3) The cell growth was calculated by subtracting mean OD value of respective blank from the mean OD value of experimental set. Percent growth in presence of test material was calculated considering the growth in absence of any test material as 100% and in turn percent growth inhibition in presence of test material will be calculated.
(§4) Methodology is the same as given in example 6 except for stock solutions of 1×10^−2M was prepared instead of 20 mg/ml.

[2] = test system: KB; test: In vitro cytotoxicity (SRB), KB; assay type: cell-based, human; details: 2 × 10^−5 M, 48 h
Procedure: as §1, with “The cell suspension of the required cell density was prepared in complete growth medium with gentamycin (50 μg/ml) for determination of cytotoxicity.” left out
(§5) A stock solutions of (20 mg/ml) of test material were prepared in distilled water. […] In vitro cytotoxicity against human cancer cell lines was determined (Monks, A., Scudiero, D., Skehan, P., Shoemaker R., Paull, K., Vistica, D., Hose, C., Langley, j., Cronise, P., Vaigro-Wolff, A., Gray-Goodrich, M., Campbell, H., Mayo, J and Boyd, M. (1991). Feasibility of a high-flux anticancer drug screen using a diverse panel of cultured human tumor cell lines. J. Natl. Cancer Inst. 83, 757-766.) using 96-well tissue culture plates. […] The optical density (OD) was recorded on ELISA reader at 540 nm. […]

[3] = test system: MCF-7; test: In vitro cytotoxicity (SRB), MCF-7; assay type: cell-based; details: Homo sapiens, MCF7; MCF-7, 1 × 10^−5 M, 48 h; read-out: percent growth inhibition
Procedure: as §1, with “The cell suspension of the required cell density was prepared in complete growth medium with gentamycin (50 μg/ml) for determination of cytotoxicity.” left out
as §5

[4] = test system: T 47 D; test: In vitro cytotoxicity (SRB), T 47 D; assay type: cell-based; details: Homo sapiens, T47D, 1 × 10^−5 M, 48 h, read-out: percent growth inhibition
Procedure: as §1, with “The cell suspension of the required cell density was prepared in complete growth medium with gentamycin (50 μg/ml) for determination of cytotoxicity.” left out
as §5

[5] = test system: ZR 75-1; test: In vitro cytotoxicity (SRB), ZR 75-1; assay type: cell-based; details: Homo sapiens; ZR 75-1, 1 × 10^−5 M, 48 h; read-out: percent growth inhibition
Procedure: as §1, with “The cell suspension of the required cell density was prepared in complete growth medium with gentamycin (50 μg/ml) for determination of cytotoxicity.” left out
as §5

[6] = test system: IMR 32; test: In vitro cytotoxicity (SRB), IMR 32; assay type: cell-based, human; details: IMR 32, 1 × 10^−5 M, 48 h
Procedure: as §1, with “The cell suspension of the required cell density was prepared in complete growth medium with gentamycin (50 μg/ml) for determination of cytotoxicity.” left out
as §5

[7] = test system: SK N SH; test: In vitro cytotoxicity (SRB), SK N SH; assay type: cell-based, human; details: 48 h
Procedure: as §1, §2, §3, §4

[8] = test system: SNB 78; test: In vitro cytotoxicity (SRB), SNB 78; assay type: cell-based, human; details: SNB 78, 1 × 10^−5 M, 48 h
Procedure: as §1, with “The cell suspension of the required cell density was prepared in complete growth medium with gentamycin (50 μg/ml) for determination of cytotoxicity.” left out
as §5

[9] = test system: SW 620; test: In vitro cytotoxicity (SRB), SW 620; assay type: cell-based, human; details: 48 h
Procedure: as §1, §2, §3, §4

[10] = test system: HT 29; test: In vitro cytotoxicity (SRB), HT 29; assay type: cell-based, human; details: 48 h
Procedure: as §1, §2, §3, §4

[11] = test system: NIH OVCAR5; test: In vitro cytotoxicity (SRB), NIH OVCAR5; assay type: cell-based; details: Homo sapiens, OVCAR-5; NIH OVCAR5, 1 × 10^−5 M, 48 h; read-out: percent growth inhibition
Procedure: as §1, with “The cell suspension of the required cell density was prepared in complete growth medium with gentamycin (50 μg/ml) for determination of cytotoxicity.” left out
as §5

[12] = test system: SiHa; test: In vitro cytotoxicity (SRB), SiHa; assay type: cell-based, human; details: 48 h
Procedure: as §1, §2, §3, §4

[13] = test system: Colo 205; test: In vitro cytotoxicity (SRB), Colo 205; assay type: cell-based, human; details: 48 h
Procedure: as §1, §2, §3, §4

[14] = test system: HOP-62; test: In vitro cytotoxicity (SRB), HOP-62; assay type: cell-based, human; details: 48 h
Procedure: as §1, §2, §3, §4

[15] = test system: NCI-H23; test: In vitro cytotoxicity (SRB), NCI-H23; assay type: cell-based, human; details: NCI-H23, 1 × 10^−5 M, 48 h
Procedure: as §1, with “The cell suspension of the required cell density was prepared in complete growth medium with gentamycin (50 μg/ml) for determination of cytotoxicity.” left out
as §5

[16] = test system: NIH OVCAR 3; test: In vitro cytotoxicity (SRB), NIH OVCAR 3; assay type: cell-based, human; details: NIH OVCAR 3, 1 × 10^−5 M, 48 h
Procedure: as §1, with “The cell suspension of the required cell density was prepared in complete growth medium with gentamycin (50 μg/ml) for determination of cytotoxicity.” left out
as §5

[17] = test system: DU 145; test: In vitro cytotoxicity (SRB), DU 145; assay type: cell-based, human; details: DU 145, 1 × 10^−5 M, 48 h
Procedure: as §1, with “The cell suspension of the required cell density was prepared in complete growth medium with gentamycin (50 μg/ml) for determination of cytotoxicity.” left out
as §5

[18] = test system: SK N MC; test: In vitro cytotoxicity (SRB), SK N MC; assay type: cell-based; details: Homo sapiens, 1 × 10^−5 M, 48 h, read-out: percent growth inhibition
Procedure: as §1, with “The cell suspension of the required cell density was prepared in complete growth medium with gentamycin (50 μg/ml) for determination of cytotoxicity.” left out
as §5

[19] = test system: A 549; test: In vitro cytotoxicity (SRB), A 549; assay type: cell-based, human; details: A 549, 1 × 10^−5 M, 48 h
Procedure: as §1, with “The cell suspension of the required cell density was prepared in complete growth medium with gentamycin (50 μg/ml) for determination of cytotoxicity.” left out
as §5

Row | Compound | percent growth inhibition [6] | percent growth inhibition ([9]; SW 620, 1 × 10^−5 M) | percent growth inhibition ([10]; HT 29, 1 × 10^−5 M) | inhibition [11] | percent growth inhibition ([12]; 1 × 10^−4 M) | percent growth inhibition ([12]; 1 × 10^−5 M) | percent growth inhibition ([12]; 1 × 10^−6 M) | percent growth inhibition ([7]; SK N SH, 1 × 10^−5 M) | percent growth inhibition ([7]; SK-NSH, 1 × 10^−4 M) | percent growth inhibition ([7]; SK-NSH, 1 × 10^−6 M) | percent growth inhibition ([13]; Colo-205, 1 × 10^−4 M) | percent growth inhibition ([13]; Colo-205, 1 × 10^−5 M) | percent growth inhibition ([13]; Colo-205, 1 × 10^−6 M) | percent growth inhibition ([9]; SW620, 1 × 10^−4 M) | percent growth inhibition ([9]; SW620, 1 × 10^−6 M) | percent growth inhibition ([1]; HCT-15, 1 × 10^−4 M) | percent growth inhibition ([1]; HCT-15, 1 × 10^−5 M) | percent growth inhibition ([1]; HCT-15, 1 × 10^−6 M) | percent growth inhibition ([10]; HT-29, 1 × 10^−4 M) | percent growth inhibition ([10]; HT-29, 1 × 10^−6 M) | further results
1 | O=c1[nH]cc(F)c(=O)[nH]1 [5-Flurouracil, reference compound] | – | – | – | – | – | – | – | – | – | – | – | – | – | – | – | – | – | – | – | – | percent growth inhibition ([1]; HCT 15, 2 × 10^−5 M): 50%; percent growth inhibition [2]: 9%
2 | COc1cccc2c1C(=O)c1c(O)c3c(c(O)c1C2=O)C[C@@](O)(C(=O)CO)C[C@@H]3O[C@H]1C[C@H](N)[C@H](O)[C@H](C)O1 [Adriamycin] | 87% | 59% | 69% | 45% | – | – | – | – | – | – | – | – | – | – | – | – | – | – | – | – | inhibition [3]: 72%; inhibition [4]: 34%; inhibition [5]: 46%; inhibition at 10 µM ([7]; Homo sapiens, SK N SH, 1 × 10^−5 M, read-out: percent growth inhibition): 82%; percent growth inhibition [8]: 20%
3 | O=C1C[C@@H](c2ccc(O)c(O[C@@H]3O[C@H](CO)[C@@H](O)[C@H](O)[C@H]3O)c2)Oc2cc(O[C@@H]3O[C@H](CO)[C@@H](O)[C@H](O)[C@H]3O)ccc21 [Butrin] | – | 0% | 11% | – | 80% | 0% | 0% | 8% | 83% | 9% | 40% | 0% | 0% | 92% | 0% | 98% | 26% | 0% | 99% | 9% | percent growth inhibition ([14]; HOP-62, 1 × 10^−4 M): 65%; percent growth inhibition ([14]; HOP-62, 1 × 10^−5 M): 6%; percent growth inhibition ([14]; HOP-62, 1 × 10^−6 M): 0%
4 | O=C(/C=C/c1ccc(O)c(O[C@@H]2O[C@H](CO)[C@@H](O)[C@H](O)[C@H]2O)c1)c1ccc(O[C@@H]2O[C@H](CO)[C@@H](O)[C@H](O)[C@H]2O)cc1O [Isobutrin] | – | 0% | 10% | – | 50% | 0% | 0% | 25% | 93% | 0% | 74% | 0% | 0% | 85% | 0% | 99% | 21% | 0% | 94% | 0% | percent growth inhibition ([14]; HOP-62, 1 × 10^−4 M): 65%; percent growth inhibition ([14]; HOP-62, 1 × 10^−5 M): 0%; percent growth inhibition ([14]; HOP-62, 1 × 10^−6 M): 0%
5 | CO[C@@]12[C@H](COC(N)=O)C3=C(C(=O)C(C)=C(N)C3=O)N1C[C@@H]1N[C@@H]12 [Mitomycin C] | 83% | – | – | – | – | – | – | – | – | – | – | – | – | – | – | – | – | – | – | – | percent growth inhibition [15]: 59%; percent growth inhibition [16]: 31%; percent growth inhibition [17]: 69%
6 | CC/C(=C(\c1ccccc1)c1ccc(OCCN(C)C)cc1)c1ccccc1 [Tamoxifen] | – | – | – | 20% | – | – | – | – | – | – | – | – | – | – | – | – | – | – | – | – | inhibition [18]: 27%; percent growth inhibition [19]: 17%

— US20060280817A1, “Pharmaceutical composition useful for the treatment of hepatocellular carcinoma” (priority 2005, published 2006)
